Test results taken from PMC3368247 (Frontiers in Pharmacology, 2012).

Tests used:
Assay type in all cases: cell-based
Conditions in all cases: 10 μM
[1] = target: channels built out of Cx36 (Homo sapiens, UniProt Q9UKL4); test: Cx36 junctional current, dual whole-cell patch-clamp
Cx32 GJ channels = Cx32 GJ channels (Rattus norvegicus, UniProt P08033); test: Cx32 junctional current, dual whole-cell voltage-clamp in N2A cells
Cx46 GJ channels = Cx46 GJ channels (Rattus norvegicus, UniProt P29414); test: Cx46 junctional current, dual whole-cell voltage-clamp in N2A cells

Sequence of Cx32 GJ channels (P08033 whole entry): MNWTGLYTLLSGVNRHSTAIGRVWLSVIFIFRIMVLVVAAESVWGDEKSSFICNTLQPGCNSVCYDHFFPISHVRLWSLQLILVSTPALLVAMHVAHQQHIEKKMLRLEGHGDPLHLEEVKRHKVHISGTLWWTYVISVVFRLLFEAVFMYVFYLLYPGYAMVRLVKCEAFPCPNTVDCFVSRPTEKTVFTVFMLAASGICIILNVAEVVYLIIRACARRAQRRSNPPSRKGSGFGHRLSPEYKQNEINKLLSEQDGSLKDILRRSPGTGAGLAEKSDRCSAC
Sequence of channels built out of Cx36 (Q9UKL4 whole entry): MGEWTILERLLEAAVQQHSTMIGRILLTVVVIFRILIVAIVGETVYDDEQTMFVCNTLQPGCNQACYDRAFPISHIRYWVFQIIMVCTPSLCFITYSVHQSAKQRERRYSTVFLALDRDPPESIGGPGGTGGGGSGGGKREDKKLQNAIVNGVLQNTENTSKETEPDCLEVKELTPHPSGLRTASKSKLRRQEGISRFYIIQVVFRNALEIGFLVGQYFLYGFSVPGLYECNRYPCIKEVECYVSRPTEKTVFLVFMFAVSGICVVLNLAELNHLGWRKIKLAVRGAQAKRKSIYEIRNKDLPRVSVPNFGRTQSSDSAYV

Clc1ccccc1C(c1ccccc1)(c1ccccc1)n1ccnc1 [Clotrimazole]
no effect: effect on channels built out of Cx36 [1] | inhibition of Cx32 GJ channel current / reduction of junction conductance (Cx32 GJ channels) | inhibition of Cx46 GJ channel current / reduction of junction conductance (Cx46 GJ channels)
